# According to patent publication US8765949B2, “CCR2 receptor antagonists and uses thereof” (Boehringer Ingelheim International GmbH, priority 2009, dated 2014):
# Target: T1, CCR2 (Homo sapiens, UniProt P41597)
# T1 construct: Membranes were prepared from THP-1 cells; endogenous in cells; host or cells: THP-1 (human acute monocytic leukaemia cells), membrane preparation
# T1 sequence (P41597 1-360 isoform P41597-2): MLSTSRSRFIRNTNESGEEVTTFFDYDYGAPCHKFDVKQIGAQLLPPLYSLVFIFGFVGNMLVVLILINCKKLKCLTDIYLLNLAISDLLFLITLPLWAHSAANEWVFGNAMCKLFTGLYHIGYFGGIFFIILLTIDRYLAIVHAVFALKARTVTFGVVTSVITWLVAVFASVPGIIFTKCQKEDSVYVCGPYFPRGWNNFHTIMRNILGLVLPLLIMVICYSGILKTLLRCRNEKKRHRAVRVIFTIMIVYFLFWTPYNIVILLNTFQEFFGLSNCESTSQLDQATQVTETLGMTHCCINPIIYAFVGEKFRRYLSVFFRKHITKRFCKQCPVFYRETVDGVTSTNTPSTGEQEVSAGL
# Assay: CCR2 receptor membrane binding assay ([125I]MCP-1, THP-1 membranes, SPA beads)
# Details: dissociation constant hKi; THP-1 cell membranes, [125I]MCP-1, bound radioactivity after 8 h
# Procedure: The above exemplary substances have been tested for binding to CCR2 using a binding assay as outlined herein below:
# THP-1 cells (human acute monocytic leukaemia cells) were cultured under standardized conditions at 37° C. and 5% CO2 in a humidified incubator. THP-1 cells were cultivated in RPMI 1640 medium (Gibco 21875) containing 1% MEM-NEAA (Gibso 11140) 2 mM L-glutamine, 1.5 g/L sodium bicarbonate, 4.5 g/L glucose, 10 mM HEPES and 1.0 mM sodium pyruvate, 90%; 10% fetal calf serum (FCS Gibco 10500-064).
# Membranes were prepared from THP-1 cells. THP-1 cells were centrifuged at 300×g at 4° C. for 10 min. The cell pellet was resuspendet in Phosphate Buffer Saline (PBS, including 10 μM Pefabloc and a protease inhibitor mix ‘complete’, Boehringer Mannheim (1 tablet/50 ml)), to a concentration of […]. The membrane preparation was performed by disrupting the cells by nitrogen […] (at 50 bar, for 1 h) in a “Nitrogen Bombe” (Parr Instrument). Cell debris was removed by centrifugation (800×g at 4° C., 1 min). The supernatant was centrifuged at 80000×g, 4° C. for 30 min to sediment the cell membranes. Usually 50 mg of protein (Bradford assay) were yielded from 1×10E9 cells. The membranes were resuspendet in 25 mM HEPES, 25 mM MgCl2, 1 mM CaCl2, 10% Glycerine for storage in aliquots at −80° C. in 25 mM HEPES, 25 mM MgCl2, 1 mM CaCl2, 10% Glycerine and stored at −80° C.
# Receptor Membrane Binding Assay:
# Perkin Elmer NEX 332 Jod 125 MCP-1, Stock: 2200 Ci/mmol solved in 2000 μl assay buffer, stored at −20° C. THP-1 membrane were adjusted with 25 mM HEPES, pH 7.2; 5 mM MgCl2; 0.5 mM CaCl2; 0.2% BSA assay buffer to a concentration of 2.5 μg/15 μl. Amersham Biosciences PVT-WGA Beads (RPNQ0001) were adjusted with assay buffer to a concentration of 0.24 mg/30 μl. For preparation of the membrane-bead-suspension membranes and beads were incubated for 30 min at RT under rotation (60 rpm) with a ratio of 1:2. Test compounds dissolved in 100% DMSO to a concentration of 10 mM and are further diluted with 100% DMSO to 1 mM. All additional compound dilutions were obtained with assay buffer, final 1% DMSO. Compounds, membrane-bead-suspension and [125I]MCP-1 (ca. 25000 cpm/10 μl) were incubated. Bound radioactivity was determined by scintillation counter after 8 h. Determination of affinity of test compounds (dissociation constant hKi) is calculated by iterative fitting of experimental data using the “easy sys” program, which is based on law of mass action (Schittkowski K. (1994), Numerische Mathematik, Vol. 68, 129-142).
row,SMILES,Ki [nM]
1,CO[C@H]1COCC[C@H]1N(C)C1CCN(C(=O)c2ncnc(NC[C@H]3CCC[C@@H](c4ccc(C)cc4)O3)c2C)CC1 [Example 54],28
2,Cc1ccc([C@@H]2CCC[C@H](CNc3ncnc(C(=O)N4CCC(N5CCC(c6cccc(C(=O)O)c6)C5)CC4)c3C)O2)cc1 (stereo partly shown) [Example 55],311
3,Cc1ccc(C2CCC[C@H](CNc3ncnc(C(=O)N4CCC(N5CCC(c6cccc(C(=O)O)c6)CC5)CC4)c3C)O2)cc1 (stereo partly shown) [Example 56],802
4,Cc1ccc(C2CCC[C@H](CNc3ncnc(C(=O)N4CCC(N5CCCC(c6cccc(C(=O)O)c6)C5)CC4)c3C)O2)cc1 (stereo partly shown) [Example 57],1800
5,Cc1ccc(C2CCC[C@H](CNc3ncnc(C(=O)N4CCC(N5CCC(c6ccc(C(=O)O)cc6)C5)CC4)c3C)O2)cc1 (stereo partly shown) [Example 58],1130
6,Cc1ccc(C2CCC[C@H](CNc3ncnc(C(=O)N4CCC(N5CCC(c6ccccc6C(=O)O)C5)CC4)c3C)O2)cc1 (stereo partly shown) [Example 59],263
7,Cc1ccc([C@H]2CCC[C@@H](CNc3ncnc(C(=O)N4CCC(N5CCC6(CC5)CC(C(=O)O)c5ccccc56)CC4)c3C)O2)cc1 (stereo partly shown) [Example 60],733

# Other lines, results leading:
row,Ki [nM],SMILES
1,0.3,CO[C@H]1COCC[C@H]1NC1CCN(C(=O)c2cc(NC[C@H]3CCC[C@@H](c4ccc(OC(F)(F)F)cc4)O3)nc(C(F)(F)F)n2)CC1 [Example 53m]
2,5,COc1nc(NC[C@H]2CCC[C@@H](c3ccc(C)cc3)O2)cc(C(=O)N2CCC(N[C@H]3CCOC[C@H]3OC)CC2)n1 [Example 53n]
3,1,COc1nc(NC[C@H]2CCC[C@@H](c3ccc(C(F)(F)F)cc3)O2)cc(C(=O)N2CCC(N[C@@H]3CCOC[C@@H]3OC)CC2)n1 [Example 53o]
4,0.8,COc1nc(NC[C@H]2CCC[C@@H](c3ccc(C(F)(F)F)cc3)O2)cc(C(=O)N2CCC(N[C@H]3CCOC[C@H]3OC)CC2)n1 [Example 53p]
5,1,COc1nc(NC[C@H]2CCC[C@@H](c3ccc(OC(F)(F)F)cc3)O2)cc(C(=O)N2CCC(N[C@@H]3CCOC[C@@H]3OC)CC2)n1 [Example 53q]
6,0.8,COc1nc(NC[C@H]2CCC[C@@H](c3ccc(OC(F)(F)F)cc3)O2)cc(C(=O)N2CCC(N[C@H]3CCOC[C@H]3OC)CC2)n1 [Example 53r]
7,0.2,CO[C@H]1COCC[C@H]1NC1CCN(C(=O)c2cc(NC[C@H]3CCC[C@@H](c4ccc(C(F)(F)F)cc4)O3)nc(C(F)(F)F)n2)CC1 [Example 53s]
8,0.4,CO[C@@H]1COCC[C@@H]1NC1CCN(C(=O)c2cc(NC[C@H]3CCC[C@@H](c4ccc(C(F)(F)F)cc4)O3)nc(C(F)(F)F)n2)CC1 [Example 53t]
9,3,Cc1c(NC[C@H]2CCC[C@@H](c3ccc(C(F)(F)F)cc3)O2)ncnc1C(=O)N1CCC(NC2CCOCC2F)CC1 (stereo partly shown) [Example 53u]
10,7,Cc1ccc([C@@H]2CCC[C@H](CNc3ncnc(C(=O)N4CCC(NC5CCOCC5F)CC4)c3C)O2)cc1 (stereo partly shown) [Example 53v]
11,0.6,Cc1c(NC[C@H]2CCC[C@@H](c3ccc(OC(F)(F)F)cc3)O2)ncnc1C(=O)N1CCC(NC2CCOCC2F)CC1 (stereo partly shown) [Example 53w]
12,9,Cc1ccc([C@@H]2CCC[C@H](CNc3ncnc(C(=O)N4CCC(N5CCC6(CC5)Cc5ccccc5O6)CC4)c3C)O2)cc1 [Example 53x]
13,16,Cc1c(NC[C@H]2CCC[C@@H](c3ccc(C(F)(F)F)cc3)O2)ncnc1C(=O)N1CCC(N2CCC3(CC2)Cc2ccccc2O3)CC1 [Example 53y]
14,3,COc1nc(NC[C@H]2CCC[C@@H](c3ccc(C)cc3)O2)c(C)c(C(=O)N2CCC(N[C@@H]3CCOC[C@@H]3OC)CC2)n1 [Example 53z]
15,5,CO[C@H]1COCC[C@H]1N(C)C1CCN(C(=O)c2ncnc(NC[C@H]3CCC[C@@H](c4ccc(C(F)(F)F)cc4)O3)c2C)CC1 [Example 54a]
